Experiments:
[1] = test system: microtubule network of MCF7, SKOV3, and HeLa cells; assay: Immunofluorescence confocal microscopy of the microtubule network; type: cell-based, human; settings: 72 h, 38 600 nM, 45 400 nM
Protocol: The effect of MDS 38 and 45 on the tubulin cytoskeleton was analyzed in MCF7, SKOV3, and HeLa cells after 72-h treatments. The microtubule network was visualized by confocal microscopy staining α-tubulin in green, and cell nuclei were stained in blue with DAPI (4’,6-diamidino-2-phenylindole) (Figure 4).
MCF7, SKOV-3, and HeLa cells were grown on glass coverslips coated with poly-L-lysine (12 mm diameter). To reach appropriate cell confluence, coverslips were manipulated in 6-well plates (3 coverslips/well) seeding 3 mL/well of cells in the exponential growth phase at 2 × 10^4 cells/mL. After 24 h incubation, cells were treated with selected compounds and incubated for 72 h. Cells were washed with PBS, fixed with 4% formaldehyde in PBS for 10 min, permeabilized with 0.5% Triton X-100 (Boehringer Mannheim, Ingelheim am Rhein, Germany) in PBS for 10 min and blocked with 10% BSA in PBS for 30 min. Microtubule detection was performed by incubation with anti-α-tubulin mouse monoclonal antibody (1:200 in 3% BSA/PBS) (Sigma-Aldrich) for 1.5 h. After PBS washing, coverslips were incubated with fluorescent secondary antibody Alexa Fluor 488 goat anti-mouse IgG (1:400 in 1% BSA/PBS) (Molecular Probes, Invitrogen, Thermo Fischer Scientific) for 1 h in darkness. […] Cells were analyzed by confocal microscopy using a LEICA SP5 microscope DMI-6000V model coupled to a LEICA LAS AF software computer.

[2] = test system: SKOV3 ovarian carcinoma cells; design: method as in PMID 29291446; settings: read-out: Antiproliferative IC50 SKOV3; cited from earlier work

SMILES | Effect on the microtubule network (α-tubulin immunofluorescence) [1] | IC50 [2] [nM]
CNc1ccc(S(=O)(=O)N(C)c2cc(OC)c(OC)c(OC)c2)cc1 [Compound 38] | disrupted the microtubule system | –
COc1ccc(/C=C\c2cc(OC)c(OC)c(OC)c2)cc1O [Combretastatin A-4, reference compound] | – | 380
COc1ccc(S(=O)(=O)N(Cc2ccccc2)c2cc(OC)c(OC)c(OC)c2)cc1N [Compound 45] | disrupted the microtubule system | –

— paper PMC7918738, “Microtubule Destabilizing Sulfonamides as an Alternative to Taxane-Based Chemotherapy” (International Journal of Molecular Sciences, 2021)
